# Source: paper PMC9674596, “Origin of acetylcholine antagonism in ELIC, a bacterial pentameric ligand-gated ion channel” (Communications Biology, 2022)
# “Also recorded” adds a separate entry of the source.
# Key:
# ELIC A75D/F133W = molecular target: T1, ELIC A75D/F133W (Dickeya chrysanthemi, UniProt P0C7B7, A75D/F133W/INS163G); assay: Two-electrode voltage clamp, A75D/F133W double mutant ELIC expressed in Xenopus laevis oocytes; format: cell-based, Erwinia chrysanthemi; conditions: for Response when applied by themselves: 50 mM applied for 40 s without cysteamine; for Potentiation of the cysteamine response on co-application: 50 mM co-applied in the middle of a cysteamine pulse at EC50 (6.9 mM); for Activation by amine (whole-cell response): 25 mM amine; for Activation by amine (whole-cell response) / Effect of co-applied ligand on cysteamine-activated current: cysteamine at its EC50; for Effect of co-applied ligand on cysteamine-activated current: 25 mM ligand, 40 s pulse
# T1 construct: expressed in transfected cells; host or cells: Xenopus laevis oocytes injected with cRNA; DNA construct synthesised by Twist Bioscience
# Method: (§1) Stage V-VI Xenopus laevis oocytes were isolated[72] and deflocculated enzymatically in ND96 buffer without Ca^2+ (96 mM NaCl, 2 mM KCl, 1 mM MgCl2, 2 mM pyruvate, 5 mM HEPES, pH 7.4), but supplemented with 1 mg/mL collagenase B and 1 mg/mL trypsin inhibitor, for 2 h at room temperature under constant stirring. The deflocculation buffer was then gradually removed by washing the oocytes in ND96 buffer (96 mM NaCl, 2 mM KCl, 1 mM MgCl2, 1 mM CaCl2, 2 mM pyruvate, 5 mM HEPES, pH 7.4) for several iterations. The oocytes were then allowed to stir for an additional hour at room temperature under constant stirring with the buffer being periodically replaced until clear. To obtain optimal receptor expression, individually selected and healthy oocytes were injected with 0.2 ng cRNA for wild-type ELIC and 5 ng cRNA for mutants. Subsequently, oocytes were incubated for one day at 16 °C in ND96^+ buffer (96 mM NaCl, 2 mM KCl, 1 mM MgCl2, 1 mM CaCl2, 2 mM pyruvate, and 5 mM HEPES at pH 7.6). After expression, injected oocytes were placed in a RC-1Z oocyte chamber (Harvard Apparatus; Hamden, CT) containing buffer (pH 7.4) composed of 150 mM NaCl, 0.5 mM BaCl2, 10 mM HEPES, and 1 mM dithiothreitol or 1 µM atropine if cysteamine, or ACh, was used in the experiment, respectively. The presence of the reducing agent, dithiothreitol, ensures that the sulfhydryl group of cysteamine remains reduced.
# (§2) Once in the oocyte chamber, whole-cell currents were recorded using a two-electrode voltage-clamp apparatus (OC-725C oocyte clamp; Harvard Apparatus), with a buffer flow rate of 5–10 mL min^−1. Currents in response to various additions of cysteamine and/or ACh, were measured with the transmembrane voltage clamped at −60 mV. Dose response curves for each wild-type and mutant ELIC were acquired from at least five oocytes in two different batches.
# (§3) For identifying the half maximal effective concentration (EC50) and apparent Hill coefficient (nH) of cysteamine, dose response curves were created by taking the magnitude of each cysteamine-activated peak current (I) and normalizing this value to the maximal peak current in the presence of excess agonist (Imax). The log (base 10) cysteamine concentration in molar was then plotted on the x-axis against the fractional response (I/Imax) on the y-axis. The data was fitted using nonlinear regression with a variable slope sigmoidal dose response (Eq. 1, below) in GraphPad Prism (v.8.0.0).1 y=1/1+10^nH^LogEC50−X
# (§4) Individual EC50 and Hill coefficients were averaged for each oocyte to derive a mean ± standard deviation. For identifying a half maximal inhibitory concentration (IC50) and Hill coefficient of ACh, a concentration of cysteamine corresponding to its EC50 was used in the presence of increasing concentrations of ACh. Peak currents elicited from cysteamine with ACh (I) were normalized to the initial cysteamine peak current in the absence of ACh (Io). The log (base 10) ACh concentration was then plotted on the x-axis against the fractional response (I/Io) on the y-axis. Subsequent steps were the same as above for deriving a cysteamine EC50 and Hill coefficient. The individual IC50 and Hill coefficients were averaged for each oocyte to derive a mean ± one standard deviation. Lastly, to identify four normalized response values, cysteamine at the 10% maximal effective concentration (EC10), 20% maximal effective concentration (EC20), EC50 and 90% maximal effective concentration (EC90), was applied in the presence and absence of 25 mM ACh. The cysteamine-activated peak current with 25 mM ACh, was normalized to the cysteamine-activated peak current without ACh.
# wild-type ELIC [1] = molecular target: T2, wild-type ELIC (Dickeya chrysanthemi, UniProt P0C7B7, INS163G); conditions: cited from earlier work
# T2 construct: expressed in transfected cells; host or cells: Xenopus laevis oocytes injected with cRNA from ELIC-pTLN
# wild-type ELIC [2] = molecular target: T2, wild-type ELIC; assay: Two-electrode voltage clamp, whole-cell currents of wild-type ELIC expressed in Xenopus laevis oocytes; format: cell-based, Erwinia chrysanthemi; conditions: for Activation by amine (whole-cell response): 25 mM amine
# Method: as §1, §2, §3
# as §4, with “[…] […]” for “For identifying a half maximal inhibitory concentration (IC50) and Hill coefficient of ACh, a concentration of cysteamine corresponding to its EC50 was used in the presence of increasing concentrations of ACh. Peak currents elicited from cysteamine with ACh (I) were normalized to the initial cysteamine peak current in the absence of ACh (Io).”
# ELIC Y38W [3] = assay: Two-electrode voltage clamp, Y38W mutant ELIC expressed in Xenopus laevis oocytes; format: cell-based, Erwinia chrysanthemi; conditions: Y38W
# Method: as §1, §2, §3, §4
# ELIC Y38W [4] = molecular target: ELIC Y38W (Dickeya chrysanthemi, UniProt P0C7B7, Y38W); assay: as above; format: cell-based, Erwinia chrysanthemi; conditions: Y38W
# Method: as §1, §2, §3, §4
# [5] = molecular target: T3, ELIC L240A (L9′A) + A75D/F133W (Dickeya chrysanthemi, UniProt P0C7B7, A75D/F133W/L239A); assay: Two-electrode voltage clamp, L9′A + A75D/F133W triple mutant ELIC expressed in Xenopus laevis oocytes; format: cell-based, Erwinia chrysanthemi; conditions: L9′A + A75D/F133W; 30 s applications of ACh 0.5 to 50 mM, then 5 mM cysteamine
# T3 construct: expressed in transfected cells; host or cells: Xenopus laevis oocytes injected with cRNA
# Method: as §1, §2, §3
# (§5) Individual EC50 and Hill coefficients were averaged for each oocyte to derive a mean ± standard deviation. For identifying a half maximal inhibitory concentration (IC50) and Hill coefficient of ACh, a concentration of cysteamine corresponding to its EC50 was used in the presence of increasing concentrations of ACh. […]
# ELIC F133W = ELIC F133W (Dickeya chrysanthemi, UniProt P0C7B7, F133W); assay: cell-based; format: cell-based, Erwinia chrysanthemi; conditions: F133W
# Method: as §1, §2, §3, §4
# wild-type ELIC [6] = molecular target: T2, wild-type ELIC; assay: Two-electrode voltage clamp, whole-cell currents of wild-type ELIC expressed in Xenopus laevis oocytes; format: cell-based, Erwinia chrysanthemi; conditions: WT ELIC, ACh inhibition of GABA-activated current
# ELIC A75D = molecular target: T4, ELIC A75D (Dickeya chrysanthemi, UniProt P0C7B7, A75D/INS163G); assay: Two-electrode voltage clamp, A75D mutant ELIC expressed in Xenopus laevis oocytes; format: cell-based, Erwinia chrysanthemi; conditions: A75D
# T4 construct: expressed in transfected cells; host or cells: Xenopus laevis oocytes injected with cRNA from ELIC-pTLN
# ELIC I79Y = molecular target: T5, ELIC I79Y (Dickeya chrysanthemi, UniProt P0C7B7, I79Y/INS163G); assay: Two-electrode voltage clamp, I79Y mutant ELIC expressed in Xenopus laevis oocytes; format: cell-based, Erwinia chrysanthemi; conditions: ACh 0.5 mM to 50 mM, followed by 5 mM cysteamine
# T5 construct: expressed in transfected cells; host or cells: Xenopus laevis oocytes injected with cRNA from ELIC-pTLN
# Method: as §1, §2, §3
# as §4, with “The cysteamine-activated peak current with 25 mM ACh, was normalized to the cysteamine-activated peak current without ACh.” left out
# ELIC L240A (L9′A) = molecular target: T6, ELIC L240A (L9′A) (Dickeya chrysanthemi, UniProt P0C7B7, L239A); assay: Two-electrode voltage clamp, L240A (L9′A) mutant ELIC expressed in Xenopus laevis oocytes; format: cell-based, Erwinia chrysanthemi; conditions: L9′A; 30 s applications of ACh 0.5 to 50 mM, then 5 mM cysteamine
# T6 construct: expressed in transfected cells; host or cells: Xenopus laevis oocytes injected with cRNA from ELIC-pTLN
# Method: as §1, §2, §3, §5
# [7] = WT, 25 mM ligand, 40 s pulse, cysteamine at its EC50
# [8] = ACh inhibition, cysteamine at its EC50
# [9] = cysteamine at EC10, EC20, EC50, EC90
# [10] = ACh 0.5 mM to 50 mM, followed by 5 mM cysteamine
smiles,measurement,setting,value
"[Cl-].[Na+] [NaCl, sodium chloride]",Response when applied by themselves,ELIC A75D/F133W,negligible response
same,Potentiation of the cysteamine response on co-application,ELIC A75D/F133W,"small, but reproducible, degree of potentiation"
"NCCCC(=O)O [GABA, γ-aminobutyric acid]",Activation by amine (whole-cell response),ELIC A75D/F133W,fails to elicit a response
same,Effect of co-applied ligand on cysteamine-activated current,ELIC A75D/F133W,same small degree of potentiation
same,Action on ELIC,wild-type ELIC [1],agonist
same,Activation Hill coefficient,"wild-type ELIC [2]; WT ELIC, agonist activation",4.0 ± 0.7
same,Increase of cysteamine-activated current by co-applied ligand,wild-type ELIC [2]; [7],roughly 2 fold
same,Macroscopic activation/deactivation kinetics of agonist-activated currents,"wild-type ELIC [2]; WT, compared with cysteamine, agonists at their EC50",slower macroscopic activation/deactivation kinetics
"C[N+](C)(C)C [tetramethylammonium, Tetramethylammonium]",Activation by amine (whole-cell response),ELIC A75D/F133W,fail to activate
same,Activation by amine (whole-cell response),wild-type ELIC [2]; WT,fail to activate
CCCN [propylamine],Action on ELIC,wild-type ELIC [1],agonists
OC[C@H]1O[C@@](CO)(O[C@H]2O[C@H](CO)[C@@H](O)[C@H](O)[C@H]2O)[C@@H](O)[C@@H]1O [sucrose],Response when applied by themselves,ELIC A75D/F133W,negligible response
same,Potentiation of the cysteamine response on co-application,ELIC A75D/F133W,did not potentiate
"CC(=O)OCC[N+](C)(C)C [ACh, acetylcholine]",Decrease in ACh IC50 relative to wild-type,ELIC Y38W [3],3 fold
same,Inhibition Hill coefficient,ELIC Y38W [4]; [8],–1.4 ± 0.1
same,Effect of 25 mM ACh on cysteamine-activated currents,ELIC Y38W [4]; [9],nearly fully inhibited
same,Peak current on application of ligand alone,ELIC Y38W [4]; [10],"None of the single mutants, nor wild-type ELIC, produced any peak current"
same,Current on application of ligand alone,[5],Neither mutant produced observable current; also recorded: No ACh-induced currents were observed
same,Activation by amine (whole-cell response),ELIC A75D/F133W,fail to activate
same,Effect of co-applied ligand on cysteamine-activated current,ELIC A75D/F133W,same small degree of potentiation
same,Potentiation of the cysteamine response on co-application,ELIC A75D/F133W,potentiation
same,Effect of high ACh concentrations on cysteamine peak current,"ELIC A75D/F133W; ACh 50–100 mM, cysteamine at EC50",appeared to potentiate
same,ACh inhibition of the cysteamine response,"ELIC A75D/F133W; cysteamine fixed at EC50 (6.9 mM), ACh up to 100 mM",failed to inhibit; also recorded: no inhibition by ACh is observed
same,Action on ELIC,wild-type ELIC [1],competitive antagonist
same,Inhibition Hill coefficient,ELIC F133W; [8],–1.1 ± 0.1
same,Effect of 25 mM ACh on cysteamine-activated currents,ELIC F133W; [9],increasing the concentration of cysteamine reduced the degree of inhibition
same,Peak current on application of ligand alone,ELIC F133W; [10],"None of the single mutants, nor wild-type ELIC, produced any peak current"
same,Inhibition Hill coefficient,"wild-type ELIC [2]; WT ELIC, ACh inhibition of cysteamine-activated current",–1.1 ± 0.1
same,Activation by amine (whole-cell response),wild-type ELIC [2]; WT,fail to activate
same,Effect of co-applied ligand on cysteamine-activated current,wild-type ELIC [2]; [7],completely inhibited
same,Effect of 25 mM ACh on cysteamine-activated currents,"wild-type ELIC [2]; WT, cysteamine at EC10, EC20, EC50, EC90",nearly fully inhibited
same,Peak current on application of ligand alone,"wild-type ELIC [2]; WT, ACh 0.5 mM to 50 mM, followed by 5 mM cysteamine","None of the single mutants, nor wild-type ELIC, produced any peak current"
same,Inhibition Hill coefficient,wild-type ELIC [6],–1.0 ± 0.3
same,Increase in ACh IC50 relative to wild-type,ELIC A75D,7 fold
same,Inhibition Hill coefficient,ELIC A75D; [8],–0.7 ± 0.1
same,Effect of 25 mM ACh on cysteamine-activated currents,ELIC A75D; [9],increasing the concentration of cysteamine reduced the degree of inhibition
same,Peak current on application of ligand alone,ELIC A75D; [10],"None of the single mutants, nor wild-type ELIC, produced any peak current"
same,Peak current on application of ligand alone,ELIC I79Y,"None of the single mutants, nor wild-type ELIC, produced any peak current"
same,Current on application of ligand alone,ELIC L240A (L9′A),Neither mutant produced observable current; also recorded: No ACh-induced currents were observed
"CN(C)C [trimethylamine, Trimethylamine]",Activation by amine (whole-cell response),ELIC A75D/F133W,activate
same,Activation by amine (whole-cell response),wild-type ELIC [2]; WT,activate
"CC(=O)OCCN(C)C [DMAEA, 2-dimethylaminoethyl acetate]",Effectiveness of activation compared with wild-type ELIC,ELIC A75D/F133W; 25 mM,much less effective than observed with wild-type ELIC
same,Activation by amine (whole-cell response),ELIC A75D/F133W,activate
same,Action on ELIC,wild-type ELIC [1],able to activate ELIC
same,Activation by amine (whole-cell response),wild-type ELIC [2]; WT,activate
